The source of these data is US6548476B1, “Dimeric inhibitors of influenza neuraminidase” (priority 1999, dated 2003).

Converted amounts (≈) assume the structure as drawn. Read-outs that look alike come from different tables or passages of the source.

In general, EC90 refers to the concentration at which the effect reaches the 90% level. Low values mean greater potency, high ones weaker potency. A word on the EC50: it is the concentration that produces a half-maximal response. For orientation: CC50 means the concentration that lowers cell viability or growth by half. Read a high CC50 as better tolerance by the cells.

One series concerns influenza A virus. Kind of series: Inhibition of influenza A virus replication (cytopathic effect) in MDCK cells. Conditions: for ID50: MDCK cells, influenza A virus. A general note: Cytopathic effects are the visible damage that an infection or toxin causes in cultured cells.
In series [1] the test system is MDCK cells. Kind of series: Minimum cytotoxic drug concentration in the MDCK cell replication assay.
Series [2] has as its system MDCK cells. Conditions: dog.
Series [3] deals with influenza A/Victoria/3/75 B010. Kind of series: Inhibition of influenza A/Victoria/3/75 B010 replication, standard CPE type assay. In kind it is cell-based. Conditions: for EC50: three separate experiments (test 1-3).
A short description of series [4]: Cytotoxicity (CC50) in the CPE type assay of Example 7. In kind it is cell-based. Conditions: CPE assay of Example 7; three separate experiments (test 1-3).

Take `CC(=O)N[C@H]1[C@H]([C@H](OC(=O)NCCCCCCNC(=O)NCCCCNC(=O)NCCCCCCNC(=O)O[C@@H]([C@@H]2OC(C(=O)O)=C[C@H](NC(=N)N)[C@H]2NC(C)=O)[C@H](O)CO)[C@H](O)CO)OC(C(=O)O)=C[C@@H]1NC(=N)N` [(2)]: in the series on influenza A virus, the “ID50 (μg of (A))” value is reported as 0.013 μg of (A) and the ID50 is 0.007 µg/mL (≈ 0.00643 µM). Moreover, the MTC with MDCK cells [1] is more than 10 µg/mL.

In the case of `CC(=O)N[C@H]1[C@H]([C@H](OC(=O)NCCCCCCNC(=O)NCCCCCCCCCCCCNC(=O)NCCCCCCNC(=O)O[C@@H]([C@@H]2OC(C(=O)O)=C[C@H](NC(=N)N)[C@H]2NC(C)=O)[C@H](O)CO)[C@H](O)CO)OC(C(=O)O)=C[C@@H]1NC(=N)N` [(3), Bis-[7-(6′-hexyleneureodo)-carbamoyloxy-5-acetamido-4-guanidino-2,3,4,5-tetradeoxy-D-glycero-D-galacto-non-2-enopyranosonic acid]], in the series with influenza A virus, the “ID50 (μg of (A))” value is recorded as 0.028 μg of (A) and the ID50 was 0.017 µg/mL (≈ 0.0142 µM). In the series on MDCK cells [1], this molecule registered an MTC of more than 10 µg/mL.

Consider `CC(=O)N[C@H]1[C@H]([C@H](OC(=O)NCCCCCCNC(=O)CNC(=O)CNC(=O)CNC(=O)NCCCCCCNC(=O)NCC(=O)NCC(=O)NCC(=O)NCCCCCCNC(=O)O[C@@H]([C@@H]2OC(C(=O)O)=C[C@H](NC(=N)N)[C@H]2NC(C)=O)[C@H](O)CO)[C@H](O)CO)OC(C(=O)O)=C[C@@H]1NC(=N)N` [(4)], for which, in the series on influenza A virus, the “ID50 (μg of (A))” value is recorded as 0.11 μg of (A) and the ID50 turned out to be 0.084 µg/mL (≈ 0.0576 µM). Also, the MTC in the series on MDCK cells [1] was more than 10 µg/mL.

As to `CC(=O)N[C@H]1[C@H]([C@H](OC(=O)NCCCCCCNC(=O)CCCCCNC(=O)CCCCCNC(=O)NCCCCCCCCCCCCNC(=O)NCCCCCC(=O)NCCCCCC(=O)NCCCCCCNC(=O)O[C@@H]([C@@H]2OC(C(=O)O)=C[C@H](NC(=N)N)[C@H]2NC(C)=O)[C@H](O)CO)[C@H](O)CO)OC(C(=O)O)=C[C@@H]1NC(=N)N` [(5)], in the series with influenza A virus, the “ID50 (μg of (A))” value is recorded as 0.42 μg of (A) and the ID50 came out at 0.35 µg/mL (≈ 0.212 µM). Also, the MTC with MDCK cells [1] is more than 10 µg/mL.

With `CC(=O)N[C@H]1[C@H]([C@H](OC(=O)NCCCCCCNC(=O)CCCCCNC(=O)CCCCCNC(=O)CCCCCNC(=O)CCCCCNC(=O)NCCCCCCNC(=O)NCCCCCC(=O)NCCCCCC(=O)NCCCCCC(=O)NCCCCCC(=O)NCCCCCCNC(=O)O[C@@H]([C@@H]2OC(C(=O)O)=C[C@H](NC(=N)N)[C@H]2NC(C)=O)[C@H](O)CO)[C@H](O)CO)OC(C(=O)O)=C[C@@H]1NC(=N)N` [(6)], in the series with influenza A virus, the “ID50 (μg of (A))” value is 0.62 μg of (A) and the ID50 amounted to 0.63 µg/mL (≈ 0.311 µM). Also, the MTC in the series with MDCK cells [1] was more than 10 µg/mL.

`CC(=O)N[C@H]1[C@H]([C@H](OC(=O)NCCCCCCN)[C@H](O)CO)OC(C(=O)O)=C[C@@H]1NC(=N)N` [(7), 5-acetamido-7-(6′-aminohexyl)-carbamoyloxy-4-guanidino-2,3,4,5-tetradeoxy-D-glycero-D-galacto-non-2-enopyranosonic acid, reference compound]: in the series on influenza A virus, the “ID50 (μg of (A))” value was 0.32 μg of (A) and the ID50 was 0.22 µg/mL (≈ 0.464 µM). Further, the MTC in the series on MDCK cells [2] was more than 10 µg/mL.

`CC(=O)N[C@H]1[C@H]([C@H](OC(=O)NCCCCCCNC(=O)CN(CCN(CC(=O)O)CC(=O)NCCCCCCNC(=O)O[C@@H]([C@@H]2OC(C(=O)O)=C[C@H](NC(=N)N)[C@H]2NC(C)=O)[C@H](O)CO)CC(=O)O)[C@H](O)CO)OC(C(=O)O)=C[C@@H]1NC(=N)N` [Compound 8, Bis-[7-(6′-methyleneamine-N-acetic acid-N-acetamido-hexyl)-carbamoyloxy-5-acetamido-4-guanidino-2,3,4,5-tetradeoxy-D-glycero-D-galacto-non-2-enopyranosonic acid]] returned an EC90 in series [3] (test 1) of 0.0671 µg/mL (≈ 0.0557 µM). Also, the EC50 in series [3] stood at 9.71 ng/mL (≈ 0.00806 µM). The molecule further showed a CC50 in series [4] of more than 0.1 µg/mL.

Consider `CC(=O)N[C@H]1[C@H]([C@H](O)[C@H](O)CO)OC(C(=O)O)=C[C@@H]1NC(=N)N` [Compound (A), 4-guanidino-2-deoxy-2,3-dehydro-N-acetylneuraminic acid, reference compound], for which, in the series on influenza A virus, the “ID50 (μg of (A))” value was 0.028 μg of (A) and the ID50 is 0.0095 µg/mL (≈ 0.0286 µM). Moreover, the concentration giving a half-maximal response (EC50) in series [3] (Influenza A virus, read-out: EC50) was found to be 9 ng/mL (≈ 0.0271 µM). The MTC with MDCK cells [1] is more than 10 µg/mL.
